Laboratory results as given in patent US11203571B2, “Sulfonamides as modulators of sodium channels” (VERTEX PHARMACEUTICALS INCORPORATED, priority 2013, dated 2021).

What was measured:
[1] = target: human Nav1.8 (Homo sapiens (Human), UniProt Q9Y5Y9); test: E-VIPR optical membrane potential assay with electrical stimulation; assay type: cell-based; settings: HEK cells expressing human Nav1.8
Text: E-VIPR Optical Membrane Potential Assay Method with Electrical Stimulation
Sodium channels are voltage-dependent proteins that can be activated by inducing membrane voltage changes by applying electric fields. The electrical stimulation instrument and methods of use are described in Ion Channel Assay Methods PCT/US01/21652, herein incorporated by reference and are referred to as E-VIPR. The instrument comprises a microtiter plate handler, an optical system for exciting the coumarin dye while simultaneously recording the coumarin and oxonol emissions, a waveform generator, a current- or voltage-controlled amplifier, and a device for inserting electrodes in well. Under integrated computer control, this instrument passes user-programmed electrical stimulus protocols to cells within the wells of the microtiter plate.
24 hours before the assay on E-VIPR, HEK cells expressing human Nav1.8 were seeded in 384-well poly-lysine coated plates at 15,000-20,000 cells per well. HEK cells were grown in media (exact composition is specific to each cell type and NaV subtype) supplemented with 10% FBS (Fetal Bovine Serum, qualified; GibcoBRL #16140-071) and 1% Pen-Strep (Penicillin-Streptomycin; GibcoBRL #15140-122). Cells were grown in vented cap flasks, in 90% humidity and 5% CO2.
• 100 mg/mL Pluronic F-127 (Sigma #P2443), in dry DMSO • Compound Plates: 384-well round bottom plate, e.g. Corning 384-well Polypropylene Round Bottom #3656 • Cell Plates: 384-well tissue culture treated plate, e.g. Greiner #781091-1B • 10 mM DiSBAC6(3) (Aurora #00-100-010) in dry DMSO • 10 mM CC2-DMPE (Aurora #00-100-008) in dry DMSO • 200 mM ABSC1 in H20
Bath1 buffer: Glucose 10 mM (1.8 g/L), Magnesium Chloride (Anhydrous), 1 mM (0.095 g/L), Calcium Chloride, 2 mM (0.222 g/L), HEPES 10 mM (2.38 g/L), Potassium Chloride, 4.5 mM (0.335 g/L), Sodium Chloride 160 mM (9.35 g/L).
Hexyl Dye Solution: Bath1 Buffer+0.5% β-cyclodextrin (make this prior to use, Sigma #C4767), 8 μM CC2-DMPE+2.5 μM DiSBAC6(3). To make the solution Added volume of 10% Pluronic F127 stock equal to volumes of CC2-DMPE+DiSBAC6(3). The order of preparation was first mix Pluronic and CC2-DMPE, then added DiSBAC6(3) while vortexing, then added Bath1+β-Cyclodextrin.
1) Pre-spotted compounds (in neat DMSO) into compound plates. Vehicle control (neat DMSO), the positive control (20 mM DMSO stock tetracaine, 125 μM final in assay) and test compounds were added to each well at 160× desired final concentration in neat DMSO. Final compound plate volume was 80 μL (80-fold intermediate dilution from 1 μL DMSO spot; 160-fold final dilution after transfer to cell plate). Final DMSO concentration for all wells in assay was 0.625%.
2) Prepared Hexyl Dye Solution.
3) Prepared cell plates. On the day of the assay, medium was aspirated and cells were washed three times with 100 μL of Bath1 Solution, maintaining 25 μL residual volume in each well.
4) Dispensed 25 μL per well of Hexyl Dye Solution into cell plates. Incubated for 20-35 minutes at room temp or ambient conditions.
5) Dispensed 80 μL per well of Bath1 into compound plates. Acid Yellow-17 (1 mM) was added and Potassium Chloride was altered from 4.5 to 20 mM depending on the NaV subtype and assay sensitivity.
6) Washed cell plates three times with 100 μL per well of Bath1, leaving 25 μL of residual volume. Then transferred 25 uL per well from Compound Plates to Cell Plates. Incubated for 20-35 minutes at room temp/ambient condition.
7) Read Plate on E-VIPR. Used the current-controlled amplifier to deliver stimulation wave pulses for 10 seconds and a scan rate of 200 Hz. A pre-stimulus recording was performed for 0.5 seconds to obtain the un-stimulated intensities baseline. The stimulatory waveform was followed by 0.5 seconds of post-stimulation recording to examine the relaxation to the resting state.
Data was analyzed and reported as normalized ratios of emission intensities measured in the 460 nm and 580 nm channels. […]

[2] = Human liver microsome assay; assay type: in vitro ADME; settings: 1 uM substrate, 0.5 mg/mL liver microsome, 2 mM NADPH, 37° C., referenced against time zero control
Method: Human Liver Microsome Assay Protocol
Liver microsomal stability data were generated as follows. Substrates were incubated at 37° C. and shaken for 30 minutes in a phosphate buffered solution with human liver microsomes and the cofactor NADPH. A time zero control was similarly prepared, however with NADPH excluded. The final incubation concentrations were 1 uM substrate (0.2% DMSO), 0.5 mg/mL liver microsome, 2 mM NADPH, and 0.1 M phosphate. Reactions were quenched and proteins precipitated with the addition of 2 volume equivalents of ice cold acetonitrile containing an internal standard. Following a centrifugation step, aliquots from the quenched incubations were further diluted with 4 volume equivalents of a 50% aqueous methanol solution and then subjected to LC/MS/MS analysis for quantitation of parent substrate. Microsome stability values were calculated as the percent of substrate remaining after 30 minutes referenced against the time zero control.

human Nav1.8, sequence (Q9Y5Y9 whole entry): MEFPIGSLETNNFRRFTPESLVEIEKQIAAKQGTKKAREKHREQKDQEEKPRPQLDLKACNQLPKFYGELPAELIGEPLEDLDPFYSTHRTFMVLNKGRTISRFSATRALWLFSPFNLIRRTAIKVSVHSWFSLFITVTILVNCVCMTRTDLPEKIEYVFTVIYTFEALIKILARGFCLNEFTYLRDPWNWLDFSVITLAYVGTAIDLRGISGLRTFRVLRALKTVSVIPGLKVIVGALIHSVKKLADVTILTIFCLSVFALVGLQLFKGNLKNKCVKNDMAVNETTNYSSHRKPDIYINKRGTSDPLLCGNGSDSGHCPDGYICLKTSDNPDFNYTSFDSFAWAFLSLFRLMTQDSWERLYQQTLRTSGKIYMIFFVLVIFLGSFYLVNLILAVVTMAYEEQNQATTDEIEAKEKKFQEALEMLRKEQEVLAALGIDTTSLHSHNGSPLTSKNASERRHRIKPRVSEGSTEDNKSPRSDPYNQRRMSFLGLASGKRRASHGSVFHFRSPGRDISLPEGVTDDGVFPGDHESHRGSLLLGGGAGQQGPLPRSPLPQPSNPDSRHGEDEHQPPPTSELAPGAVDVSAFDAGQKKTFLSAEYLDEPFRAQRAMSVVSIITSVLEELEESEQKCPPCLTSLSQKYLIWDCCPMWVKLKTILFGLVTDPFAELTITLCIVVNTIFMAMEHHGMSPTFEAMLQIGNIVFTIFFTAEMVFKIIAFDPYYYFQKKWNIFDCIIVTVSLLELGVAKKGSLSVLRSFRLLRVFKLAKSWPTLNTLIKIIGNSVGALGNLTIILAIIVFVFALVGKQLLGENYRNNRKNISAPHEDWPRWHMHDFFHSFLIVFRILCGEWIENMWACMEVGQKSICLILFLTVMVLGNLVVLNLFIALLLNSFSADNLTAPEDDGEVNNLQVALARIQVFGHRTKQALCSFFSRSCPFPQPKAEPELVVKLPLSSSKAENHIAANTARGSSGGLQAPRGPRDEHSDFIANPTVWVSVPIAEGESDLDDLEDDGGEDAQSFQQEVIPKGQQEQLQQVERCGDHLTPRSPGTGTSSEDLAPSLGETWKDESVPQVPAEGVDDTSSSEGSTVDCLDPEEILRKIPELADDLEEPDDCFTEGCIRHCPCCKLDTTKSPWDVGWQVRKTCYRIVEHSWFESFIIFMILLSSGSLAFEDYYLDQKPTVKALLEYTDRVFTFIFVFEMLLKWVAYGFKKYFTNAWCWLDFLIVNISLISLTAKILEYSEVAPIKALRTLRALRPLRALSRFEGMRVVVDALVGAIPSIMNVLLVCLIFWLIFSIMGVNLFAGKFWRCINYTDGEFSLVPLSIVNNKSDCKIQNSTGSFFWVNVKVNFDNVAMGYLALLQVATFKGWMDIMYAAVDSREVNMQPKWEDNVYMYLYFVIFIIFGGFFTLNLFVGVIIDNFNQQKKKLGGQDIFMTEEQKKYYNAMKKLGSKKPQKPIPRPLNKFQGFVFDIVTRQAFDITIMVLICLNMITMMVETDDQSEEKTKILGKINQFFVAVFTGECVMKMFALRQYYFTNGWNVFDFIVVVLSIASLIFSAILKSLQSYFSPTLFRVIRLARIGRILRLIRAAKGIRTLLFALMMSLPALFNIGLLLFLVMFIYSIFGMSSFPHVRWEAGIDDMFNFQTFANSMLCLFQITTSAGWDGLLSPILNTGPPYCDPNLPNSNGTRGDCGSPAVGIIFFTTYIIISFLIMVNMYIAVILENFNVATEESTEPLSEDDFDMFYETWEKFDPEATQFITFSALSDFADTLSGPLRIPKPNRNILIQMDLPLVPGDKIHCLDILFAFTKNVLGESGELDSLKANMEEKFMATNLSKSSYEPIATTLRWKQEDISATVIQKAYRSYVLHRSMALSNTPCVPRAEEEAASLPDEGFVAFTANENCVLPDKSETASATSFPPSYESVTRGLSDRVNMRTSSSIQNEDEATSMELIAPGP

IC50 [1] [nM]	HLM: percent unchanged after 30 min [2] [%]	SMILES
8	76	Cc1ccccc1Oc1ccc(C(F)(F)F)cc1C(=O)Nc1cccc(S(N)(=O)=O)c1 [Compound 32, N-(3-sulfamoylphenyl)-2-(o-tolyloxy)-5-(trifluoromethyl)benzamide]
5	82	COc1cc(Cl)ccc1Oc1ccc(C(F)(F)F)cc1C(=O)Nc1cccc(S(N)(=O)=O)c1 [Compound 35, 2-(4-chloro-2-methoxyphenoxy)-N-(3-sulfamoylphenyl)-5-(trifluoromethyl)benzamide]
20	67	COc1ccc(Oc2cc(C(F)(F)C(F)(F)F)ccc2C(=O)Nc2cccc(S(N)(=O)=O)c2)c(Cl)c1 [Compound 72, 2-(2-chloro-4-methoxyphenoxy)-4-(perfluoroethyl)-N-(3-sulfamoylphenyl)benzamide]
4	119	NS(=O)(=O)c1cccc(NC(=O)c2cc(C(F)(F)F)ccc2Oc2ccc(F)cc2Cl)c1 [Compound 26, 2-(2-chloro-4-fluorophenoxy)-N-(3-sulfamoylphenyl)-5-(trifluoromethyl)benzamide]
4	94	Cc1cc(F)ccc1Oc1ccc(C(F)(F)F)cc1C(=O)Nc1cccc(S(N)(=O)=O)c1 [Compound 25, 2-(4-fluoro-2-methylphenoxy)-N-(3-sulfamoylphenyl)-5-(trifluoromethyl)benzamide]
14	96	COc1ccccc1Oc1ccc(C(F)(F)F)cc1C(=O)Nc1cccc(S(N)(=O)=O)c1 [Compound 34, 2-(2-methoxyphenoxy)-N-(3-sulfamoylphenyl)-5-(trifluoromethyl)benzamide]
6	101	COc1cc(F)ccc1Oc1ccc(C(F)(F)F)cc1C(=O)Nc1cccc(S(N)(=O)=O)c1 [Compound 27, 2-(4-fluoro-2-methoxyphenoxy)-N-(3-sulfamoylphenyl)-5-(trifluoromethyl)benzamide]
5	62	COc1ccc(Oc2cccc(C(F)(F)F)c2C(=O)Nc2cccc(S(N)(=O)=O)c2)c(Cl)c1 [Compound 75, 2-(2-chloro-4-methoxyphenoxy)-N-(3-sulfamoylphenyl)-6-(trifluoromethyl)benzamide]
28	88	COc1ccc(Oc2ccc(C(F)(F)F)cc2C(=O)Nc2cccc(S(N)(=O)=O)c2)cc1 [Compound 22, 2-(4-methoxyphenoxy)-N-(3-sulfamoylphenyl)-5-(trifluoromethyl)benzamide]
6	82	COc1ccc(Oc2ccc(C(F)(F)F)cc2C(=O)Nc2cccc(S(N)(=O)=O)c2)c(Cl)c1 [Compound 31, 2-(2-chloro-4-methoxyphenoxy)-N-(3-sulfamoylphenyl)-5-(trifluoromethyl)benzamide]

Second part, the compound before the results:

SMILES	IC50 [1] [nM]	HLM: percent unchanged after 30 min [2] [%]
Cc1cc(F)ccc1Oc1cc(Cl)ccc1C(=O)Nc1cccc(S(N)(=O)=O)c1 [Compound 19, 4-chloro-2-(4-fluoro-2-methyl-phenoxy)-N-(3-sulfamoylphenyl)benzamide]	16	94
NS(=O)(=O)c1cccc(NC(=O)c2cc(C(F)(F)F)ccc2Oc2ccc(F)cc2)c1 [Compound 3, 2-(4-fluorophenoxy)-N-(3-sulfamoylphenyl)-5-(trifluoromethyl)benzamide]	16	117
Cc1cc(F)ccc1Oc1cc(C#N)ccc1C(=O)Nc1cccc(S(N)(=O)=O)c1 [Compound 9, 4-cyano-2-(4-fluoro-2-methyl-phenoxy)-N-(3-sulfamoylphenyl)benzamide]	28	102
NS(=O)(=O)c1cccc(NC(=O)c2ccc(C(F)(F)F)cc2Oc2ccc(F)cc2F)c1 [Compound 2, 2-(2,4-difluorophenoxy)-N-(3-sulfamoylphenyl)-4-(trifluoromethyl)benzamide]	22	97
COc1ccc(Oc2cc(Cl)ccc2C(=O)Nc2cccc(S(N)(=O)=O)c2)c(OC)c1 [Compound 84, 4-chloro-2-(2,4-dimethoxyphenoxy)-N-(3-sulfamoylphenyl)benzamide]	13	82
COc1cc(Cl)ccc1Oc1cc(C(F)(F)C(F)(F)F)ccc1C(=O)Nc1cccc(S(N)(=O)=O)c1 [Compound 71, 2-(4-chloro-2-methoxyphenoxy)-4-(perfluoroethyl)-N-(3-sulfamoylphenyl)benzamide]	28	81
COc1c(Cl)cccc1Oc1cc(C(F)(F)F)ccc1C(=O)Nc1cccc(S(N)(=O)=O)c1 [Compound 68, 2-(3-chloro-2-methoxyphenoxy)-N-(3-sulfamoylphenyl)-4-(trifluoromethyl)benzamide]	9	80
NS(=O)(=O)c1cccc(NC(=O)c2c(Cl)cc(Cl)cc2Oc2ccc(F)cc2)c1 [Compound 94, 2,4-dichloro-6-(4-fluorophenoxy)-N-(3-sulfamoylphenyl)benzamide]	5	97
COc1ccc(F)cc1Oc1cc(C(F)(F)F)cc(C(F)(F)F)c1C(=O)Nc1cccc(S(N)(=O)=O)c1 [Compound 92, 2-(5-fluoro-2-methoxyphenoxy)-N-(3-sulfamoylphenyl)-4,6-bis(trifluoromethyl)benzamide]	16	113
NS(=O)(=O)c1cccc(NC(=O)c2cc(C(F)F)ccc2Oc2ccc(F)cc2Cl)c1 [Compound 40, 2-(2-chloro-4-fluorophenoxy)-5-(difluoromethyl)-N-(3-sulfamoylphenyl)benzamide]	7	107
COc1cc(Cl)ccc1Oc1cc(Cl)c(Cl)cc1C(=O)Nc1cccc(S(N)(=O)=O)c1 [Compound 80, 4,5-dichloro-2-(4-chloro-2-methoxyphenoxy)-N-(3-sulfamoylphenyl)benzamide]	4	108
NS(=O)(=O)c1cccc(NC(=O)c2ccc(OC(F)(F)F)cc2Oc2ccccc2OC(F)F)c1 [Compound 64, 2-(2-(difluoromethoxy)phenoxy)-N-(3-sulfamoylphenyl)-4-(trifluoromethoxy)benzamide]	22	96
COc1cc(F)ccc1Oc1cc(Cl)c(Cl)cc1C(=O)Nc1cccc(S(N)(=O)=O)c1 [Compound 77, 4,5-dichloro-2-(4-fluoro-2-methoxyphenoxy)-N-(3-sulfamoylphenyl)benzamide]	1	95
